pIC50: −log10 of the molar value. Read-outs that look alike come from different tables or passages of the source.
What was measured:
Assay type in all cases: cell-based
human (h) PAR2 = biological target: T1, human (h) PAR2 (Homo sapiens, UniProt P55085); experiment: IP1 accumulation assay in KNRK-hPAR2 cells; details: 100 nM 2F; 30 μM of antagonist; read-out: KNRK-PAR2 100 nM 2F: ND (inhibition of 2F at 30 μM of antagonist)
T1 construct: expressed in transfected cells; host or cells: KNRK cells (KNRK-hPAR2)
T1 sequence (P55085 26-397): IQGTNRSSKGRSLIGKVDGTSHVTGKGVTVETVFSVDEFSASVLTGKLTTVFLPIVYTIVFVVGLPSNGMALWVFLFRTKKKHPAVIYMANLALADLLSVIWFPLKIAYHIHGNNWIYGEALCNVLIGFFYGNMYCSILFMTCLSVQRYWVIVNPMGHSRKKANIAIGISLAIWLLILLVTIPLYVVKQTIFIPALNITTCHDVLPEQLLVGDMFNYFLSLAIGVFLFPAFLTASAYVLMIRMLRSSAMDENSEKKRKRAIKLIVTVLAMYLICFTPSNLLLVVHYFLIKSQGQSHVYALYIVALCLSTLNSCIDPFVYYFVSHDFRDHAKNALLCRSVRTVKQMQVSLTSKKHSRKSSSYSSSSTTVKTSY
Procedure: (§1) KNRK-hPAR2, KNRK or HT-29 cells were seeded at a density of 50×10^3 cells/well in a clear poly-d-lysine coated 96 well tissue culture plate. Following 24 h incubation at 37° C. and 5% CO2, media was removed and replaced with 80 μl IP1 stimulation buffer (10 mM HEPES, 1 mM CaCl2, 0.5 mM MgCl2, 4.2 mM KCl, 146 mM NaCl, 5.5 mM glucose, 50 mM LiCl). Following stimulation buffer addition, the wells received 10 μl of 10× antagonists or DMSO vehicle. All plates were further incubated at 37° C., 5% CO2 for 30 min. 10 μl of 2F or ATP was added to the plates and further incubated for 40 min. Following incubation, stimulation buffer was quickly removed by aspiration and replaced with 25 μl lysis buffer (IP-One HTRF® assay kit, Cisbio). Following incubation of the lysates at 37° C., 5% CO2 for 10′, 10 μl lysate was transferred to a 384-well OptiPlate (PerkinElmer) and detected using the IP-One HTRF® assay kit (Cisbio).
(§2) Compounds of the invention (added at 10×concentrations in a 10 μL volume) were incubated for 30 min prior to the addition of 10 μM ATP or 100 nM or 300 nM PAR2 agonist (2F; EC80, added at 10×concentrations in a 10 μL volume) and then further incubated for 40 min. After lysis, the inositol phosphate 1 was quantified with IP-One HTRF® assay kit, Cisbio. The data was analysed with Prism, GraphPad to calculate the IC50 values, shown below in Table 1.
(§3) Inhibition of PAR2 signaling with known PAR2 inhibitor I-343 (FIG. 14A) was investigated in HT-29 cells and HEK293 cells, which express endogenous PAR2, and in KNRK cells expressing human (h) PAR2. Accumulation of inositol phosphate-1 (IP1) was measured in response to the PAR2-selective agonist 2-Furoyl-LIGRLO-NH2 (2F), an analogue of the trypsin-exposed tethered ligand, or trypsin.
(§4) KNRK-hPAR2, KNRK, HEK293, or HT-29 cells were seeded at a density of 50×10^3 cells/well onto clear 96-well plates (PerkinElmer). After 24 h of culture, medium was replaced with IP1 stimulation buffer (10 mM HEPES, 1 mM CaCl2, 0.5 mM MgCl2, 4.2 mM KCl, 146 mM NaCl, 5.5 mM glucose, 50 mM LiCl; 37° C., 5% CO2.). Cells were pre-incubated with the antagonist or vehicle for 30 min prior to the addition of agonist. Cells were then further incubated for 40 min. Stimulation buffer was […]

PAR2 = biological target: T2, PAR2 (Homo sapiens, UniProt P55085); experiment: IP1 accumulation assay in HT-29 cells (endogenous PAR2); details: 2F (300 nM)-induced IP1, HT-29 cells
T2 construct: HT-29 cells and HEK293 cells, which express endogenous PAR2; endogenous in cells; host or cells: HT-29
T2 sequence (P55085 26-397): T1 sequence (P55085 26-397)
Procedure: as §1, §2, §3, §4

mouse DRG neurons [1] = experiment: Patch clamp rheobase of DRG neurons: IBS-D biopsy supernatant-induced hyperexcitability
Procedure: An investigation as whether proteases from mucosal biopsies of IBS patients cause a persistent hyperexcitability of nociceptors was conducted by a mechanism that entails endosomal signaling of PAR2. Biopsies of colonic mucosa from patients with diarrhea-predominant IBS (IBS-D) or healthy control (HC) subjects were placed in culture medium (24 h, 37° C.). Mouse DRG neurons were then exposed to biopsy supernatants (30 min, 37° C.) and washed. Rheobase was measured 30 min after washing to assess persistent hyperexcitability. Supernatants of biopsies from IBS-D patients caused a persistent decrease in rheobase, consistent with hyperexcitability, when compared to supernatants from HC subjects (rheobase at 30 min: HC, 78.33±4.41 pA, 12 neurons, supernatant from 4 HC; IBS-D, 54.55±4.74 pA, 11 neurons, supernatant from 4 IBS-D; P<0.05; ANOVA, Tukey's multiple comparisons test) (FIG. 6A, B). I-343 (10 μM), Dy4 (dynamin inhibitor, 30 μM) and PD98059 (MEK1 inhibitor, 50 μM) abolished IBS-D-induced hyperexcitability of nociceptors (FIG. 6A-D).
The Queen's University Human Ethics Committee approved human studies. All subjects gave informed consent. Endoscopic biopsies were obtained from the descending colon of 13 adult IBS-D patients (12 female) diagnosed using ROME III criteria for diarrhea predominant IBS and of 12 health controls. All IBS patients had symptoms greater than 1 year and most were greater than 5 years. Celiac disease was excluded by blood test and patients over 40 years with daily diarrhea were biopsied at the time of colonoscopy to exclude microscopic colitis. […] Biopsies (8 samples per patient) were incubated in 250 μl of RPMI medium containing 10% fetal calf serum, penicillin/streptomycin and gentamicin/amphotericin B (95% O2/5% […], 24 h, 37° C.). Supernatants were stored at −80° C. Supernatants from 4-6 patients were pooled and studied in individual experiments.
DRG innervating the colon (T9-T13) were collected from C57BL/6 mice. Ganglia were digested by incubation in collagenase IV (1 mg/ml, Worthington) and dispase (4 mg/ml, Roche) (10 min, 37° C.). DRG were triturated with a fire-polished Pasteur pipette, and further digested (5 min, 37° C.). Neurons were washed, plated onto laminin- (0.017 mg/ml) and poly-D-lysine- (2 mg/ml) coated glass coverslips, and were maintained in F12 medium containing 10% fetal calf serum, penicillin and streptomycin (95% air, 5% CO2, 16 h, 37° C.) until retrieval for electrophysiological studies.
Small-diameter (<30 pF capacitance) neurons were studied because they display characteristics of nociceptors (Valdez-Morales E. E. et al., Am J Gastroenterol 2013, 108(10): 1634-1643). Changes in excitability were quantified by measuring rheobase. Whole-cell perforated patch-clamp recordings were made using Amphotericin B (240 μg/ml, Sigma Aldrich) in current clamp mode at room temperature. The recording chamber was perfused with external solution at 2 ml/min. Recordings were made using Multiclamp 700B or Axopatch 200B amplifiers, digitized by Digidata 1440A or 1322A, and processed using pClamp 10.1 software (Molecular Devices). Solutions had the composition (mM): pipette—K-gluconate 110, KC130, HEPES 10, MgCl2 1, CaCl2 2; pH 7.25 with 1 M KOH; external—NaCl 140, KCl 5 HEPES 10, glucose 10, MgCl2 1, CaCl2 2; pH to 7.3-7.4 with 3 M NaOH. […] Neurons were also preincubated with trypsin (50 nM, 10 min), NE (390 nM, 30 min), CS (500 nM, 60 min), or vehicle (37° C.), and washed. Rheobase was measured at T 0 or T 30 min after washing. To investigate mechanisms of protease-evoked effects, neurons were incubated with I-343 (100 nM, 300 nM, 10 μM, 30 min preincubation), SCH79797 (1 μM, 10 min), Dy4 (30 μM, 30 min), PS2 (15 μM, 30 min), PD98059 (50 μM, 30 min), GF109203X (10 μM, 30 min), or vehicle (preincubation and inclusion throughout). In experiments using the tripartite antagonist, neurons were preincubated with Compound 10 (30 μM, 60 min, 37° C.) or vehicle and washed. […]

mouse DRG neurons [2] = experiment: Patch clamp rheobase of DRG neurons: protease-induced hyperexcitability of nociceptors
[3] = I-343 10 μM, Dy4 30 μM, PD98059 50 μM

Compound | inhibition at 30 µM (human (h) PAR2) [%] | pIC50 (PAR2; read-out: HT-29 300 nM 2F (IC50)) | IC50 (PAR2; read-out: HT-29 300 nM 2F pIC50 ± SEM (converted)) [nM] | excitability of neurons treated with HC supernatant (mouse DRG neurons [1]) | rheobase at 30 min, IBS-D supernatant (mouse DRG neurons [1]) [pA] | persistent actions of IBS-D supernatant on nociceptor excitability (mouse DRG neurons [1]; 30 μM, 60 min preincubation, washed) | baseline rheobase (mouse DRG neurons [2]) | initial excitability at 0 min after trypsin (mouse DRG neurons [2]) | persistent response at 30 min after trypsin (mouse DRG neurons [2]) | IBS-D-induced hyperexcitability of nociceptors (mouse DRG neurons [1]; [3]) | rheobase of neurons exposed to HC supernatant (mouse DRG neurons [1]; [3]) | initial trypsin-induced hyperexcitability (mouse DRG neurons [2]; PD98059 50 μM, GF109203X 10 μM) | persistent trypsin-induced hyperexcitability (mouse DRG neurons [2]; PD98059 50 μM, GF109203X 10 μM)
CC(C)CCCC(C)[C@H]1CCC2C3CCC4C[C@@H](OC(=O)CC(NC(=O)CCOCCOCCOCCOCCOCCOCCOCCOCCOCCOCCOCCOCCNC(=O)Cn5cc(C(=O)N6CCN(C(=O)c7cn8nc(-c9ccc(F)cc9)cc(C(C)(C)C)c8n7)C(C)(C)C6)nn5)C(N)=O)CC[C@]4(C)C3CC[C@@]21C (stereo in doubt) [Compound 10, (3S,10S,13R,17R)-10,13-dimethyl-17-((R)-6-methylheptan-2-yl)hexadecahydro-1H-cyclopenta[a]phenanthren-3-yl (44S)-1-(4-(4-(8-(tert-butyl)-6-(4-fluorophenyl)imidazo[1,2-b]pyridazine-2-carbonyl)-3,3-dimethylpiperazine-1-carbonyl)-1H-1,2,3-triazol-1-yl)-44-carbamoyl-2,42-dioxo-6,9,12,15,18,21,24,27,30,33,36,39-dodecaoxa-3,43-diazahexatetracontan-46-oate] | < 50 | 6.17 | 661 | did not affect | 64.7±3.84 | completely prevented | no effect | did not affect | prevented |  |  |  | 
COc1cccc(-c2cc(=O)c3ccccc3o2)c1N [PD98059] |  |  |  |  |  |  |  |  |  | abolished | no effect | did not affect | prevented

From patent publication US20200383985A1, “Inhibitors of Protease Activated Receptor-2” (Endosome Therapeutics, Inc., priority 2017, published 2020)
